In patent publication EP1981504B1, “THIADIAZOLE DERIVATIVES FOR THE TREATMENT OF NEURO DEGENERATIVE DISEASES” (NV reMYND, priority 2006, dated 2007):
≈ marks a conversion by molar mass, not a printed value.

Test system: M17-SYNwt cells
Assay: α-synuclein cytotoxicity assay (LDH leakage from paraquat-treated α-synuclein over-expressing neuroblastoma cells)
Format: cell-based, human
Details: paraquat 32 mM, 40 hours, LDH release; for EC50: Homo sapiens, Neuroblastoma cell, 10 point curves in duplicate; for %I: percent inhibition of synuclein cytotoxicity at most effective concentration of test compound, relative to untreated paraquat cells
Summary of the method: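 M17 neuroblastoma cells over-expressing wild-type α-synuclein were challenged with paraquat, and cytotoxicity was read as LDH release. Protection was expressed as percent reduction of paraquat-induced LDH release relative to untreated paraquat cells and control cells. Actives were retested in 10-point duplicate dose responses.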

SMILES | EC50 [µg/mL] | %I [%]
CC1CN(c2nc(Cc3ccc(F)cc3)ns2)CCN1C(=O)c1cccc(C(F)(F)F)c1 (stereo not shown) [Compound 145, 1-(3-trifluoromethylbenzoyl)-4-[3-(4-fluorobenzyl)-1,2,4-thiadiazol-5-yl]-2-methylpiperazine] | 0.62 (≈ 1.33 µM) | 60
COc1cccc(Cc2nsc(N3CCN(C(=O)c4ccc(C(C)(C)C)cc4)C(C)C3)n2)c1 (stereo not shown) [Compound 146, 1-(4-tert-butylbenzoyl)-4-[3-(3-methoxybenzyl)-1,2,4-thiadiazol-5-yl]-2-methylpiperazine] | 0.72 (≈ 1.55 µM) | 94
CCc1ccc(C(=O)N2CCN(c3nc(Cc4ccc(C)cc4)ns3)CC2C)cc1 (stereo not shown) [Compound 147, 1-(4-ethylbenzoyl)-4-[3-(4-methylbenzyl)-1,2,4-thiadiazol-5-yl]-2-methylpiperazine] | 0.84 (≈ 2 µM) | 88
CC1CN(c2nc(Cc3ccc(F)cc3)ns2)CCN1C(=O)c1ccccc1Br (stereo not shown) [Compound 148, 1-(2-bromobenzoyl)-4-[3-(4-fluorobenzyl)-1,2,4-thiadiazol-5-yl]-2-methylpiperazine] | 0.86 (≈ 1.81 µM) | 56
Cc1ccc(Cc2nsc(N3CCN(C(=O)c4ccccc4F)C(C)C3)n2)cc1 (stereo not shown) [Compound 149, 1-(2-fluorobenzoyl)-4-[3-(4-methylbenzyl)-1,2,4-thiadiazol-5-yl]-2-methylpiperazine] | 0.98 (≈ 2.39 µM) | 105
CC1CN(c2nc(Cc3ccccc3)ns2)CCN1C(=O)c1cccc(F)c1 (stereo not shown) [Compound 150, 1-(3-fluorobenzoyl)-4-[3-benzyl-1,2,4-thiadiazol-5-yl]-2-methylpiperazine] | 1.14 (≈ 2.88 µM) | 99
Cc1ccc(Cc2nsc(N3CCN(C(=O)c4ccc(F)cc4)C(C)C3)n2)cc1 (stereo not shown) [Compound 151, 1-(4-fluorobenzoyl)-4-[3-(4-methylbenzyl)-1,2,4-thiadiazol-5-yl]-2-methylpiperazine] | 1.14 (≈ 2.78 µM) | 73
Cc1ccccc1C(=O)N1CCN(c2nc(Cc3ccc(F)cc3)ns2)CC1 [Compound 152, 1-(2-methylbenzoyl)-4-[3-(4-fluorobenzyl)-1,2,4-thiadiazol-5-yl]piperazine] | 1.15 (≈ 2.9 µM) | 66
O=C(c1ccc(F)cc1)N1CCN(c2nc(Cc3ccc(Cl)cc3)ns2)CC1 [Compound 153, 1-(4-fluorobenzoyl)-4-[3-(4-chlorobenzyl)-1,2,4-thiadiazol-5-yl]piperazine] | 1.44 (≈ 3.45 µM) | 53
CC1CN(c2nc(Cc3ccccc3)ns2)CCN1C(=O)c1ccc(F)cc1 (stereo not shown) [Compound 154, 1-(4-fluorobenzoyl)-4-[3-benzyl-1,2,4-thiadiazol-5-yl]-2-methylpiperazine] | 1.58 (≈ 3.98 µM) | 75
Cc1ccc(Cc2nsc(N3CCN(C(=O)c4ccc(Cl)cc4)CC3)n2)cc1 [Compound 155, 1-(4-chlorobenzoyl)-4-[3-(4-methylbenzyl)-1,2,4-thiadiazol-5-yl]piperabine] | 1.64 (≈ 3.97 µM) | 76
Cc1ccc(Cc2nsc(N3CCN(C(=O)c4cccc(F)c4)C(C)C3)n2)cc1 (stereo not shown) [Compound 156, 1-(3-fluorobenzoyl)-4-[3-(4-methylbenzyl)-1,2,4-thiadiazol-5-yl]-2-methylpiperazine] | 1.67 (≈ 4.07 µM) | 86
O=C(c1cccc(F)c1)N1CCN(c2nc(Cc3ccc(Cl)cc3)ns2)CC1 [Compound 157, 1-(3-fluorobenzoyl)-4-[3-(4-chlorobenzyl)-1,2,4-thiadiazol-5-yl]piperazine] | 1.7 (≈ 4.08 µM) | 70
Cc1ccc(Cc2nsc(N3CCN(C(=O)c4ccccc4)CC3)n2)cc1 [Compound 158, 1-benzoyl-4-[3-(4-methylbenzyl)-1,2,4-thiadiazol-5-yl]piperazine] | 2.1 (≈ 5.55 µM) | 57
O=C(c1ccccc1F)N1CCN(c2nc(Cc3ccc(Cl)cc3)ns2)CC1 [Compound 159, 1-(2-fluorobenzoyl)-4-[3-(4-chlorobenzyl)-1,2,4-thiadiazol-5-yl]piperazine] | 2.85 (≈ 6.84 µM) | 48
Cc1ccc(Cc2nsc(N3CCN(C(=O)c4ccc(F)cc4)CC3)n2)cc1 [Compound 160, 1-(4-fluorobenzoyl)-4-[3-(4-methylbenzyl)-1,2,4-thiadiazol-5-yl]piperazine] | 2.87 (≈ 7.24 µM) | 88
Cc1ccc(Cc2nsc(N3CCN(C(=O)c4ccc5c(c4)OCO5)C(C)C3)n2)cc1 (stereo not shown) [Compound 161, 1-(1,3-benzodioxol-5-ylcarbonyl)-4-[3-(4-methylbenzyl)-1,2,4-thiadiazol-5-yl]-2-methyl+B176piperazine] | 3.36 (≈ 7.7 µM) | 101
Cc1ccc(Cc2nsc(N3CCN(C(=O)c4cccc(F)c4)CC3)n2)cc1 [Compound 162, 1-(3-flurorbenzoyl)-4-[3-(4-methylbenzyl)-1,2,4-thiadiazol-5-yl]piperazine] | 3.4 (≈ 8.58 µM) | 101
O=C(c1ccc(F)cc1)N1CCN(c2nc(Cc3ccccc3)ns2)CC1 [Compound 163, 1-(4-fluorobenzoyl)-4-[3-benzyl-1,2,4-thiadiazol-5-yl]piperazine] | 3.61 (≈ 9.44 µM) | 67

SMILES | EC50 [µg/mL] | %I [%]
Cc1ccc(Cc2nsc(N3CCN(C(=O)c4ccc(Br)cc4)CC3)n2)cc1 [Compound 164, 1-(4-bromobenzoyl)-4-[3-(4-methylbenzyl)-1,2,4-thiadiazol-5-yl]piperazine] | 3.86 (≈ 8.44 µM) | 60
CCc1ccc(C(=O)N2CCN(c3nc(Cc4ccc(Cl)cc4)ns3)CC2)cc1 [Compound 165, 1-(4-ethylbenzoyl)-4-[3-(4-chlorobenzyl)-1,2,4-thiadiazol-5-yl]piperazine] |  | 133
CC1CN(c2nc(Cc3ccc(F)cc3)ns2)CCN1C(=O)c1ccccc1Cl (stereo not shown) [Compound 166, 1-(2-chlorobenzoyl)-4-[3-(4-fluorobenzyl)-1,2,4-thiadiazol-5-yl]-2-methylpiperazine] |  | 123
CC1CN(c2nc(Cc3ccc(Cl)cc3)ns2)CCN1C(=O)c1ccccc1F (stereo not shown) [Compound 167, 1-(2-fluorobenzoyl)-4-[3-(4-chlorobenzyl)-1,2,4-thiadiazol-5-yl]-2-methylpiperazine] |  | 117
COc1cccc(Cc2nsc(N3CCN(C(=O)c4ccc(C(F)(F)F)cc4)C(C)C3)n2)c1 (stereo not shown) [Compound 168, 1-(4-trifluoromethylbenzoyl)-4-[3-(3-methoxybenzyl)-1,2,4-thiadiazol-5-yl]-2-methylpiperazine] |  | 91
Cc1ccc(Cc2nsc(N3CCN(C(=O)c4ccccc4)C(C)C3)n2)cc1 (stereo not shown) [Compound 169, 1-benzoyl-4-[3-(4-methylbenzyl)-1,2,4-thiadiazol-5-yl]-2-methylpiperazine] |  | 91
COc1cccc(Cc2nsc(N3CCN(C(=O)c4ccc(Br)cc4)C(C)C3)n2)c1 (stereo not shown) [Compound 170, 1-(4-bromobenzoyl)-4-[3-(3-methoxybenzyl)-1,2,4-thiadiazol-5-yl]-2-methylpiperazine] |  | 89
Cc1ccc(Cc2nsc(N3CCN(C(=O)c4ccc(C(F)(F)F)cc4)CC3)n2)cc1 [Compound 171, 1-(4-trifluoromethylbenzoyl)-4-[3-(4-methylbenzyl)-1,2,4-thiadiazol-5-yl]piperazine] |  | 86
Cc1ccc(C(=O)N2CCN(c3nc(Cc4ccc(F)cc4)ns3)CC2C)cc1[N+](=O)[O-] (stereo not shown) [Compound 172, 1-(3-nitro-4-methylbenzoyl)-4-[3-(4-fluorobenzyl)-1,2,4-thiadiazol-5-yl]-2-methylpiperazine] |  | 86
COc1cccc(Cc2nsc(N3CCN(C(=O)c4ccccc4)C(C)C3)n2)c1 (stereo not shown) [Compound 173, 1-benzoyl-4-[3-(3-methoxybenzyl)-1,2,4-thiadiazol-5-yl]-2-methylpiperazine] |  | 85
COc1cccc(Cc2nsc(N3CCN(C(=O)c4ccc(Cl)cc4)C(C)C3)n2)c1 (stereo not shown) [Compound 174, 1-(4-chlorobenzoyl)-4-[3-(3-methoxybenzyl)-1,2,4-thiadiazol-5-yl]-2-methylpiperazine] |  | 83
Cc1ccc(Cc2nsc(N3CCN(C(=O)c4ccccc4F)CC3)n2)cc1 [Compound 175, 1-(2-fluorobenzoyl)-4-[3-(4-methylbenzyl)-1,2,4-thiadiazol-5-yl]piperazine] |  | 78
CCCCCCc1ccc(C(=O)N2CCN(c3nc(Cc4ccc(C)cc4)ns3)CC2)cc1 [Compound 176, 1-(4-hexylbenzoyl)-4-[3-(4-methylbenzyl)-1,2,4-thiadiazol-5-yl]piperazine] |  | 77
CC1CN(c2nc(Cc3ccc(F)cc3)ns2)CCN1C(=O)c1ccc([N+](=O)[O-])cc1Cl (stereo not shown) [Compound 177, 1-(2-chloro-4-nitrobenzoyl)-4-[3-(4-fluorobenzyl)-1,2,4-thiadiazol-5-yl]-2-methylpiperazine] |  | 77
CC1CN(c2nc(Cc3ccc(F)cc3)ns2)CCN1C(=O)c1ccc2c(c1)OCO2 (stereo not shown) [Compound 178, 1-(1,3-benzodioxol-5-ylcarbonyl)-4-[3-(4-fluorobenzyl)-1,2,4-thiadiazol-5-yl]-2-methylpiperazine] |  | 68
CC1CN(c2nc(Cc3ccc(F)cc3)ns2)CCN1C(=O)c1cccc(F)c1 (stereo not shown) [Compound 179, 1-(3-fluorobenzoyl)-4-[3-(4-fluorobenzyl)-1,2,4-thiadiazol-5-yl]-2-methylpiperazine] |  | 68
CC(C)(C)c1ccc(C(=O)N2CCN(c3nc(Cc4ccc(F)cc4)ns3)CC2)cc1 [Compound 180, 1-(4-tert-butylbenzoyl)-4-[3-(4-fluorobenzyl)-1,2,4-thiadiazol-5-yl]piperazine] |  | 62
O=C(c1ccccc1)N1CCN(c2nc(Cc3ccc(F)cc3)ns2)CC1 [Compound 181, 1-benzoyl-4-[3-(4-fluorobenzyl)-1,2,4-thiadiazol-5-yl]piperazine] |  | 60
CCCCc1ccc(C(=O)N2CCN(c3nc(Cc4ccc(C)cc4)ns3)CC2)cc1 [Compound 182, 1-(4-butylbenzoyl)-4-[3-(4-methylbenzyl)-1,2,4-thiadiazol-5-yl]piperazine] |  | 57
